Reference: ChEMBL document CHEMBL1201862, “PubChem BioAssay data set” (2004)
Calls of active or inactive are those of the source.

What was measured:
[1] = biological target: Estrogen receptor beta (Homo sapiens, UniProt Q92731);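 also: recombinant ER-beta bound to coactivator SRC1 peptide in presence of estradiol agonist; inhibitors block coactivator peptide binding and lower the FRET signal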
[2] = system: Vero; experiment: mammalian cell viability reduction – secondary assay, cytotoxicity control for West Nile virus antiviral project, dose response (AID 1650); type: functional; conditions: Chlorocebus sabaeus
[3] = M. tuberculosis H37Rv growth inhibitors, H37Rv strain (AID 1626); type: functional
[4] = biological target: Sphingosine 1-phosphate receptor 2 (Homo sapiens, UniProt O95136); experiment: Dose Response Cell Based Assay for Agonists of the S1P2 Receptor of Purchased Analogues. [Related pubchem assays: 729, 843, 854, 736 ]; type: functional
[5] = biological target: T1, COUP transcription factor 2 (Homo sapiens, UniProt P24468); experiment: Luminescence-based cell-based high throughput dose response assay to identify inhibitors of COUP-TFII (NR2F2).; type: functional;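 also: HEK293 cells transiently cotransfected with COUP-TFII expression vector and reporter; luciferase reporter luminescence driven by COUP-TFII from the pX2-168 reporter plasmid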
T1 sequence (P24468 whole entry): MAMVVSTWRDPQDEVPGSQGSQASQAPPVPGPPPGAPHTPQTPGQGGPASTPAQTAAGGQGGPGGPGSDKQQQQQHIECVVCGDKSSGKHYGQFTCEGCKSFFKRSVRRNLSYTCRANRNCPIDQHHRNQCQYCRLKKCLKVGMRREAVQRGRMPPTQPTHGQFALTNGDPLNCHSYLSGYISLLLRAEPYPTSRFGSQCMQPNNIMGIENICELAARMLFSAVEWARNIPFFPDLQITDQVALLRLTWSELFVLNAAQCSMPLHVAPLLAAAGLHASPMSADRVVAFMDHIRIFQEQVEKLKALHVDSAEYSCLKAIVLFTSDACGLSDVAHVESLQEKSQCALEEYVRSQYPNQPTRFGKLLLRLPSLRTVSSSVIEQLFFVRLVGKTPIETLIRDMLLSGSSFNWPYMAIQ

[6] = HEK-293T viability loss after treatment – luminescence, T-cell screen hits, cytotoxicity control for TCR NF-kB inhibitor project, dose response (AID 489026); type: functional, cell-based;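 also: cells exposed to compound about 14 hours before the viability readout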
[7] = biological target: T2, Galanin receptor type 3 (Homo sapiens, UniProt O60755); experiment: Fluorescence-based cell-based primary high throughput dose response assay to identify antagonists of the Galanin Receptor 3 (GalR3).; type: functional
T2 sequence (O60755 whole entry): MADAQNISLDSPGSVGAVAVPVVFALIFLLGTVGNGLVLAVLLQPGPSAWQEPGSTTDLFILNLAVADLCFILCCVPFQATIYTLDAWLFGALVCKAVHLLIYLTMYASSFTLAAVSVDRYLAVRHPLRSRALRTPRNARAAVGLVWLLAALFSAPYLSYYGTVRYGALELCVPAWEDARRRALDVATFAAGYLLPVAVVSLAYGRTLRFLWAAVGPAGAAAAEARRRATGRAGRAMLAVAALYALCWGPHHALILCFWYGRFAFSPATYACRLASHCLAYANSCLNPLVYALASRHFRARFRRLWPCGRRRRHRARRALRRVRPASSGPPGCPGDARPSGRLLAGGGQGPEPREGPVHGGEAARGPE

[8] = cells; type: functional, cell-based; conditions: HEK-CNG
[9] = biological target: Kallikrein-7 (Homo sapiens, UniProt P49862); experiment: Fluorescence Intensity-based biochemical primary high throughput dose response assay to identify activators of kallikrein-7 (K7) zymogen.
[10] = biological target: T3, Caspase-6 (Homo sapiens, UniProt P55212); experiment: inhibition of CASP6 peptide cleavage – biochemical, VEID-R110 fluorescence, cherry-pick, dose response (AID 720632)
T3 sequence (P55212 whole entry): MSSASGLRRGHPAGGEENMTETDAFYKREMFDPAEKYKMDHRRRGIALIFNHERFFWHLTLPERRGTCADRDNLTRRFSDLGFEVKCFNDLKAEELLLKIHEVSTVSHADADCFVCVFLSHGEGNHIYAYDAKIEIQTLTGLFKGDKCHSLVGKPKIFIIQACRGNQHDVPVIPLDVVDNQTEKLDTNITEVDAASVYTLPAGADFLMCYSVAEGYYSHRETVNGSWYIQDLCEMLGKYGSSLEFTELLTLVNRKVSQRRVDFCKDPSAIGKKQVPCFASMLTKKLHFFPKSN

[11] = biological target: T4, Carboxy-terminal domain RNA polymerase II polypeptide A small phosphatase 1 (Homo sapiens, UniProt Q9GZU7); experiment: CTDSP1 inhibitors, concentration-response, biochemical, absorbance readout, ultra-high-throughput screen actives (AID 540297); type: functional
T4 sequence (Q9GZU7 whole entry): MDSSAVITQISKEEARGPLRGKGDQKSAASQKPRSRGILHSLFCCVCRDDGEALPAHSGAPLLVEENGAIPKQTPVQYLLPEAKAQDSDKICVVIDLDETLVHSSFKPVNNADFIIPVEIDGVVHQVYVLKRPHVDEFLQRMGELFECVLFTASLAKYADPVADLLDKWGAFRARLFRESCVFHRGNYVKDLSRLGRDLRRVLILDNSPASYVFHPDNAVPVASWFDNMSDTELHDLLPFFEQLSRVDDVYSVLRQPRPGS

[12] = cells
[13] = biological target: T5, Protein skinhead-1 (Caenorhabditis elegans, UniProt P34707); type: functional
T5 sequence (P34707 whole entry): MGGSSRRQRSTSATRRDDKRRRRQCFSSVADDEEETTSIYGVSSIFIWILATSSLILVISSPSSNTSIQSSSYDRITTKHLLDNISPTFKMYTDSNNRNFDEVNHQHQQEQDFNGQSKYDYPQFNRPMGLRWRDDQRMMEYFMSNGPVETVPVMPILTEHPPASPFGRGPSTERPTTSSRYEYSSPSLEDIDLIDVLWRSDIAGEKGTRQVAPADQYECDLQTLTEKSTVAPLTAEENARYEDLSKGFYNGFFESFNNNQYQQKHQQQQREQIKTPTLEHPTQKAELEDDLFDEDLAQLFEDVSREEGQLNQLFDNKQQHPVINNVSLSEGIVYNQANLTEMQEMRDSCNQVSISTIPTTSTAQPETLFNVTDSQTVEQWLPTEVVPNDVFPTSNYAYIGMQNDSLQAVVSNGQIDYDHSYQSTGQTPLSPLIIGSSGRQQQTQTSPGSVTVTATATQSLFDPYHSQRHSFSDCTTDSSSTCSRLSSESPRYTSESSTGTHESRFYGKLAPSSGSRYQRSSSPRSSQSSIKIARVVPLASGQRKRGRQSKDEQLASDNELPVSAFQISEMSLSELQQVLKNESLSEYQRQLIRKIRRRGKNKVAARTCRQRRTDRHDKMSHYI

[14] = biological target: T6, Mannose-6-phosphate isomerase (Homo sapiens, UniProt P34949); experiment: MPI inhibition at elevated mannose 6-phosphate – biochemical, fluorescence intensity, high mannose 6-phosphate, primary screen (AID 1220)
T6 sequence (P34949 whole entry): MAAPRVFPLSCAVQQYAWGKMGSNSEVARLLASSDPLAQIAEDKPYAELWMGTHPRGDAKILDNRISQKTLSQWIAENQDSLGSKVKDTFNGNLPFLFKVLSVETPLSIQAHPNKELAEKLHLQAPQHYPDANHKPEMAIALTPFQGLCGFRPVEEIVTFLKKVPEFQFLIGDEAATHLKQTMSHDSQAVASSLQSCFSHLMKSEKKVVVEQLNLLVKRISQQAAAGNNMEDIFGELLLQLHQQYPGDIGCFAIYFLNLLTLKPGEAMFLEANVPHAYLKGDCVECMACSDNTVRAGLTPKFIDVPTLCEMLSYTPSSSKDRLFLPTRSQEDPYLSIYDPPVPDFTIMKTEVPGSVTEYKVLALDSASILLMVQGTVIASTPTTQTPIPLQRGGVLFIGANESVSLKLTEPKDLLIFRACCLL

[15] = biological target: T6, Mannose-6-phosphate isomerase; experiment: MPI enzyme activity inhibition – biochemical, fluorescence intensity, coupled assay, primary screen (AID 1209)
[16] = viability of uninfected HEp-2 cells – cell-based, HTS, cytotoxicity control for RSV inhibitor project, dose response (AID 2410); type: functional; conditions: human respiratory syncytial virus
[17] = reduction of Shn3 3'UTR-driven luciferase in osteoblasts – cell-based, Clone20 osteoblasts, firefly luciferase, cherry-picked, dose response (AID 624132); type: functional;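 also: firefly luciferase luminescence from reporter carrying the Shn3 3'UTR in osteoblasts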
[18] = loss of viability in HepG2 cells – cell-based, CellTiter-Glo, cherry-picked, cytotoxicity control for Shn3 inhibitor project, dose response (AID 624134); type: functional
[19] = non-specific 3'UTR reporter inhibition in Clone20-Shn3RL – cell-based, Renilla luciferase, cherry-picked, counter-screen for Shn3 inhibitor project, dose response (AID 624133); type: functional
[20] = Luminescence Cell-Based Dose Confirmation HTS to Identify Activators of 5'UTR Stem-Loop Driven Alpha-Synuclein mRNA Translation in H4 Neuroglioblastoma Cells. [Related pubchem assays: 1829 (Project Summary), 1814 (Primary HTS)]; type: functional
[21] = system: H4; experiment: Luminescence Cell-Based Dose Response HTS to Identify Activators of 5'UTR Stem-Loop Driven Prion Protein mRNA Translation in H4 Neuroglioblastoma Cells. [Related pubchem assays: 1829 (Project Summary), 1814 (Primary HTS)]; type: functional; conditions: Homo sapiens
[22] = Luminescence Cell-Based Dose Response HTS to Identify Activators of Luciferase Translation or Activity in H4 […] Cells. [Related pubchem assays: 1829 (Project Summary), 1814 (Primary HTS)]; type: functional
[23] = A Cell Based Secondary Assay To Explore Cytotoxicity of Compounds that Sensitize Mycobacterium Tuberculosis to Beta-Lactam Antibiotics.; type: functional

Sequence of Sphingosine 1-phosphate receptor 2 (O95136 whole entry): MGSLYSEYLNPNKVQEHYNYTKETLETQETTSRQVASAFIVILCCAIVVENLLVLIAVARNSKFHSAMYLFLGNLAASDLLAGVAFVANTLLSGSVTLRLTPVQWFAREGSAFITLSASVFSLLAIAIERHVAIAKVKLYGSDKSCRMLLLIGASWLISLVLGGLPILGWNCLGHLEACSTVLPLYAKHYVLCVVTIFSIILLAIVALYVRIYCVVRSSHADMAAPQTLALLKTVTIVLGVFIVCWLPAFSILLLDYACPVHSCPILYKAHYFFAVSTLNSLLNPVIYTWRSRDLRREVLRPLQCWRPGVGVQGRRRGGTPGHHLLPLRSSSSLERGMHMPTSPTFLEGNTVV
Sequence of Kallikrein-7 (P49862 whole entry): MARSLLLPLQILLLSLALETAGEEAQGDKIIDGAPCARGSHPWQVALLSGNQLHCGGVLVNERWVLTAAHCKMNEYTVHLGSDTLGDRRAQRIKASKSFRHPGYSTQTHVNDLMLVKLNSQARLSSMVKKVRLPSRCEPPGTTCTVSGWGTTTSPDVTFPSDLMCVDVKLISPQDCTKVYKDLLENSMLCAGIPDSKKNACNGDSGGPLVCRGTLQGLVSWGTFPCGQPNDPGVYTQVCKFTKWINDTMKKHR
Sequence of Estrogen receptor beta (Q92731 whole entry): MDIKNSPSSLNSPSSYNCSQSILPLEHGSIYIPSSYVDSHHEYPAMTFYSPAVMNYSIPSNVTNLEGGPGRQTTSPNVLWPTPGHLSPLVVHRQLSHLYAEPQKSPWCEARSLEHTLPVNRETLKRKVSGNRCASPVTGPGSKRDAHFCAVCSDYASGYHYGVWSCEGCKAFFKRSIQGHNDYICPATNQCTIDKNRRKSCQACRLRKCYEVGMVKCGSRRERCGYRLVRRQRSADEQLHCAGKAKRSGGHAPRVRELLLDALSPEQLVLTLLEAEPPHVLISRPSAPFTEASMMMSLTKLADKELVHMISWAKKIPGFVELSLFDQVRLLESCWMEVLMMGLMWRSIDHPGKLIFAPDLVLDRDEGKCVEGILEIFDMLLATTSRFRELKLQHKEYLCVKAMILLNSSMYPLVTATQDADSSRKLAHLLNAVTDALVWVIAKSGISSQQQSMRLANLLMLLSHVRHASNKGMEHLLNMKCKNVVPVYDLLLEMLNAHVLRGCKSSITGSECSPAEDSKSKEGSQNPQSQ

O=C(O)c1cc2sccc2s1
IC50 [1]: > 50 µM (not active)

CC(C)Oc1ccc(C(=O)Nc2ccc(Cl)c(S(=O)(=O)Nc3ccc(Cl)cc3)c2)cc1
CC50 [2]: 28.1 µM (active)

CCCCC(=O)OCC(=O)Nc1ccc(SC(F)F)cc1
IC50 [3]: > 100 µM (active)

Cc1cc(C(=O)COc2ccc(C(N)=O)cc2)c(C)n1Cc1ccccc1
EC50 [4]: > 30 µM (not active)

COc1ccc(OC)c(CCNC(=O)Cn2nc(C)c3c(C)n(-c4ccc(C)cc4)nc3c2=O)c1
IC50 [5]: 2.61 µM (active) | IC50 [6]: > 80 µM (inactive) | IC50 [7]: 2.76 µM (active) | EC50 [8]: > 29.9 µM (inactive)

CC[C@@H]1C(c2ccc(F)cc2)=NN(c2ccccc2)[C@H]1C(=O)N1CCOC1=O
EC50 [9]: 7.45 µM (active)

Cc1ccc(OCCC(=O)Nc2ccc(C)c(F)c2)cc1
IC50 [3]: > 100 µM (active)

CC(=O)c1ccc(OCC(=O)c2cc(C)n(Cc3ccccc3)c2C)cc1
EC50 [4]: > 30 µM (not active)

CCc1ccccc1NC(=O)CNC(=O)CCc1nc2sc3c(c2c(=O)[nH]1)CCCC3
AC50 [10]: 24.8 µM (active) | IC50 [11]: 5.82 µM (active)

COc1cccc(C2(C)NC(=O)N(CC(=O)c3cc(C)n(Cc4ccccc4)c3C)C2=O)c1 (stereo not drawn)
EC50 [4]: > 30 µM (not active)

Cc1ccc(S(=O)(=O)N2CCN(C)CC2)cc1-c1nnc2c3ccccc3c(C)nn12
IC50 [12]: 23.1 µM (active)

O=C(O)CCNc1cc2ccccc2cc1C(=O)O
IC50 [13]: > 100 µM (inactive) | IC50 [14]: > 50 µM (not active) | IC50 [15]: > 50 µM (not active)

CCOc1ccc(OCC)c(NC(=O)CN2CCN(c3cc(C)ccc3C)CC2)c1
IC50 [3]: > 100 µM (active)

Cc1cc(C)c2cc(C=O)c(Cl)nc2c1
IC50 [14]: 17.1 µM (active) | IC50 [15]: 14.2 µM (active)

CCN(c1ccccc1)S(=O)(=O)c1ccc(Cl)c(NC(=O)CSc2nc[nH]n2)c1
IC50 [12]: 16.9 µM (active) | CC50 [16]: 46.3 µM (active)

CCC(C)C(NC(=O)CCCNC(=O)CCC(=O)OC1O[C@H]2OC3(C)CC[C@H]4[C@H](C)CCC(C1C)C24OO3)C(=O)O (stereo partly drawn)
AC50 [17]: 1.02 µM (active) | IC50 [5]: > 85.4 µM (inactive) | AC50 [18]: > 70 µM (inactive) | AC50 [19]: 0.683 µM (active)

Cc1nc(N=C(N)NC(=O)c2ccccc2)nc2ccccc12
EC50 [20]: 8.34 µM (active) | EC50 [21]: 63.4 µM (active) | EC50 [22]: 28.4 µM (active) | CC50 [23]: > 40 µM (active)

c1ccc(-c2cc(N3CCOCC3)nc3ccccc23)cc1
CC50 [23]: > 40 µM (active)

CS(=O)(=O)c1ccc(-c2sc3cc4c(cc3c2C(=O)NN2CCOCC2)OCO4)cc1
EC50 [9]: > 23.2 µM (inactive) | IC50 [11]: 14.6 µM (active)

COc1ccc(-c2ccc3c(n2)CCCN3Cc2ccccc2C(F)(F)F)cc1
EC50 [9]: 17.2 µM (inactive)

C(=N\Nc1ncnc2sc3c(c12)CCC3)/c1ccncc1
CC50 [2]: > 100 µM (active) | CC50 [16]: 38.7 µM (active)

COc1cc(C)c2occ(/C(C)=N\O)c2c1
IC50 [12]: 18.4 µM (active)
